Measurements published in patent US20130245081A1, “Compositions and Methods for Treating Amyotrophic Lateral Sclerosis” (priority 2009, published 2013).
Values joined by “and” are separate entries in the source; they are usually repeats but may differ in a detail not shown here. Equal values may be shown once. Read-outs that look alike come from different tables or passages of the source.

System: patients with ALS
Settings: for subjects who died (incl. after discontinuation): double-blind period through Week 28; for total number of deaths: first 24-week randomized active treatment period

Structure (SMILES): CCCN[C@@H]1CCc2nc(N)sc2C1 [dexpramipexole, (6R)-2-amino-4,5,6,7-tetrahydro-6-(propylamino)benzothiazole]
- Unadjusted Slope Estimate, Bulbar (50 mg): −0.364
- Unadjusted Slope Estimate, Fine (50 mg): −0.311
- Unadjusted Slope Estimate, Gross (50 mg): −0.305
- Unadjusted Slope Estimate, Resp (50 mg): −0.270
- Zero Imputation Slope Estimate, Bulbar (50 mg): −0.578
- Zero Imputation Slope Estimate, Fine (50 mg): −0.440
- Zero Imputation Slope Estimate, Gross (50 mg): −0.390
- Zero Imputation Slope Estimate, Resp (50 mg): −0.575
- joint rank test of survival and ALSFRS-R (generalized Gehan Wilcoxon test) (50 mg versus 300 mg, through Week 28, p=0.046): statistically significant difference
- McGill SIS, Mean (SE) (50 mg, Endpoint of Part 2): 5.9 (0.38)
- McGill SIS, Mean Δ (SE) from baseline (50 mg, Endpoint of Part 2): −0.5 (0.27)
- McGill SIS, Median Δ (50 mg, Endpoint of Part 2): 0.0
- Upright Vital Capacity, Mean (SE) (50 mg, Endpoint of Part 2): 62.2 (4.19) % predicted
- Upright Vital Capacity, Mean Δ (SE) from baseline of Part 2 (50 mg, Endpoint of Part 2): −14.6 (3.54) % predicted
- Upright Vital Capacity, Median Δ (50 mg, Endpoint of Part 2): −11.5 % predicted
- McGill SIS, Mean (SE) (50 mg, Week 8): 6.2 (0.37)
- McGill SIS, Mean Δ (SE) from baseline (50 mg, Week 8): −0.2 (0.19)
- McGill SIS, Median Δ (50 mg, Week 8): 0.0
- Upright Vital Capacity, Mean (SE) (50 mg, Week 8): 73.7 (2.92) % predicted
- Upright Vital Capacity, Mean Δ (SE) from baseline of Part 2 (50 mg, Week 8): −3.2 (1.67) % predicted
- Upright Vital Capacity, Median Δ (50 mg, Week 8): −1.9 % predicted
- McGill SIS, Mean (SE) (50 mg, Week 12): 6.5 (0.34)
- McGill SIS, Mean Δ (SE) from baseline (50 mg, Week 12): −0.1 (0.20)
- McGill SIS, Median Δ (50 mg, Week 12): 0.0
- Upright Vital Capacity, Mean (SE) (50 mg, Week 12): 72.9 (3.82) % predicted
- Upright Vital Capacity, Mean Δ (SE) from baseline of Part 2 (50 mg, Week 12): −4.0 (2.19) % predicted
- Upright Vital Capacity, Median Δ (50 mg, Week 12): −3.1 % predicted
- McGill SIS, Mean (SE) (50 mg, Week 16): 6.1 (0.37)
- McGill SIS, Mean Δ (SE) from baseline (50 mg, Week 16): −0.3 (0.22)
- McGill SIS, Median Δ (50 mg, Week 16): 0.0
- McGill SIS, Mean (SE) (50 mg, Week 20): 6.1 (0.33)
- McGill SIS, Mean Δ (SE) from baseline (50 mg, Week 20): −0.7 (0.22)
- McGill SIS, Median Δ (50 mg, Week 20): −1.0
- Upright Vital Capacity, Mean (SE) (50 mg, Week 20): 75.8 (4.02) % predicted
- Upright Vital Capacity, Mean Δ (SE) from baseline of Part 2 (50 mg, Week 20): −6.0 (3.36) % predicted
- Upright Vital Capacity, Median Δ (50 mg, Week 20): −7.2 % predicted
- McGill SIS, Mean (SE) (50 mg, Week 24): 6.3 (0.43)
- McGill SIS, Mean Δ (SE) from baseline (50 mg, Week 24): −0.4 (0.23)
- McGill SIS, Median Δ (50 mg, Week 24): 0.0
- McGill SIS, Mean (SE) (50 mg, Week 28): 5.9 (0.45)
- McGill SIS, Mean Δ (SE) from baseline (50 mg, Week 28): −0.7 (0.23)
- McGill SIS, Median Δ (50 mg, Week 28): 0.0
- Upright Vital Capacity, Mean (SE) (50 mg, Week 28): 69.5 (3.79) % predicted
- Upright Vital Capacity, Mean Δ (SE) from baseline of Part 2 (50 mg, Week 28): −12.4 % predicted and −12.4 (3.00) % predicted
- Upright Vital Capacity, Median Δ (50 mg, Week 28): −10.4 % predicted
- decline in ALSFRS-R scores (repeated measures mixed effect model) (50 mg, Week 28): −7.05
- subjects who died (incl. after discontinuation) (50 mg): 9 (19%) N (%) and 9 N (%)
- total number of deaths (50 mg): 7
- did not require tracheostomy and did not die (50 mg, through Week 28): 81%
- mean change from baseline in ALSFRS-R total score (50 mg, through Week 28): −6.5
- slope estimate of ALSFRS-R scores (linear mixed effects model) (50 mg, through Week 28): −1.283
- slope of ALSFRS-R total scores, zero imputed for first post-death visit (50 mg, through Week 28): −2.05
- slope of upright vital capacity (linear mixed effects, unadjusted) (50 mg, through Week 28): −2.452
- subjects with feeding tubes placed (50 mg, through Week 28): 9 (19%) N (%)
- Unadjusted Slope Estimate, Bulbar (300 mg): −0.310
- Unadjusted Slope Estimate, Fine (300 mg): −0.211
- Unadjusted Slope Estimate, Gross (300 mg): −0.320
- Unadjusted Slope Estimate, Resp (300 mg): −0.186
- Zero Imputation Slope Estimate, Bulbar (300 mg): −0.376
- Zero Imputation Slope Estimate, Fine (300 mg): −0.238
- Zero Imputation Slope Estimate, Gross (300 mg): −0.338
- Zero Imputation Slope Estimate, Resp (300 mg): −0.255
- attenuation of decline in vital capacity (adjusted slopes) (300 mg compared with 50 mg): 21% and 18%
- Unadjusted Slope Estimate, Bulbar, % reduction (300 mg vs 50 mg): 14.84%
- Unadjusted Slope Estimate, Fine, % reduction (300 mg vs 50 mg): 32.15%
- Unadjusted Slope Estimate, Gross, % reduction (300 mg vs 50 mg): −4.92%
- Unadjusted Slope Estimate, Resp, % reduction (300 mg vs 50 mg): 31.11%
- Zero Imputation Slope Estimate, Bulbar, % reduction (300 mg vs 50 mg): 34.95%
- Zero Imputation Slope Estimate, Fine, % reduction (300 mg vs 50 mg): 45.91%
- Zero Imputation Slope Estimate, Gross, % reduction (300 mg vs 50 mg): 13.33%
- Zero Imputation Slope Estimate, Resp, % reduction (300 mg vs 50 mg): 55.65%
- reduction in decline of ALSFRS-R slope, zero imputation (300 mg vs 50 mg): 42%
- smaller decline in ALSFRS-R scores (repeated measures model) (300 mg vs 50 mg, Week 28): 19.7%
- McGill SIS, Mean (SE) (300 mg, Endpoint of Part 2): 6.1 (0.35)
- McGill SIS, Mean Δ (SE) from baseline (300 mg, Endpoint of Part 2): −0.8 (0.30)
- McGill SIS, Median Δ (300 mg, Endpoint of Part 2): −1.0
- Upright Vital Capacity, Mean (SE) (300 mg, Endpoint of Part 2): 61.1 (3.94) % predicted
- Upright Vital Capacity, Mean Δ (SE) from baseline of Part 2 (300 mg, Endpoint of Part 2): −20.3 (2.88) % predicted
- Upright Vital Capacity, Median Δ (300 mg, Endpoint of Part 2): −14.3 % predicted
- McGill SIS, Mean (SE) (300 mg, Week 8): 6.9 (0.32)
- McGill SIS, Median Δ (300 mg, Week 8): 0.0
- Upright Vital Capacity, Mean (SE) (300 mg, Week 8): 80.3 (3.20) % predicted
- Upright Vital Capacity, Mean Δ (SE) from baseline of Part 2 (300 mg, Week 8): −1.4 (0.91) % predicted
- Upright Vital Capacity, Median Δ (300 mg, Week 8): −0.8 % predicted
- McGill SIS, Mean (SE) (300 mg, Week 12): 6.5 (0.37)
- McGill SIS, Mean Δ (SE) from baseline (300 mg, Week 12): −0.4 (0.25)
- McGill SIS, Median Δ (300 mg, Week 12): 0.0
- Upright Vital Capacity, Mean (SE) (300 mg, Week 12): 78.5 (3.34) % predicted
- Upright Vital Capacity, Mean Δ (SE) from baseline of Part 2 (300 mg, Week 12): −4.2 (1.91) % predicted
- Upright Vital Capacity, Median Δ (300 mg, Week 12): −4.3 % predicted
- McGill SIS, Mean (SE) (300 mg, Week 16): 6.4 (0.33)
- McGill SIS, Mean Δ (SE) from baseline (300 mg, Week 16): −0.4 (0.23)
- McGill SIS, Median Δ (300 mg, Week 16): 0.0
- McGill SIS, Mean (SE) (300 mg, Week 20): 6.4 (0.34)
- McGill SIS, Mean Δ (SE) from baseline (300 mg, Week 20): −0.5 (0.30)
- McGill SIS, Median Δ (300 mg, Week 20): 0.0
- Upright Vital Capacity, Mean (SE) (300 mg, Week 20): 70.8 (3.77) % predicted
- Upright Vital Capacity, Mean Δ (SE) from baseline of Part 2 (300 mg, Week 20): −10.6 (1.58) % predicted
- Upright Vital Capacity, Median Δ (300 mg, Week 20): −9.0 % predicted
- McGill SIS, Mean (SE) (300 mg, Week 24): 6.3 (0.36)
- McGill SIS, Mean Δ (SE) from baseline (300 mg, Week 24): −0.7 (0.30)
- McGill SIS, Median Δ (300 mg, Week 24): 0.0
- McGill SIS, Mean (SE) (300 mg, Week 28): 6.0 (0.38)
- McGill SIS, Mean Δ (SE) from baseline (300 mg, Week 28): −0.9 (0.31)
- McGill SIS, Median Δ (300 mg, Week 28): −1.0
- Upright Vital Capacity, Mean (SE) (300 mg, Week 28): 67.3 (4.44) % predicted
- Upright Vital Capacity, Mean Δ (SE) from baseline of Part 2 (300 mg, Week 28): −15.1 % predicted and −15.1 (2.63) % predicted
- Upright Vital Capacity, Median Δ (300 mg, Week 28): −11.5 % predicted
- decline in ALSFRS-R scores (repeated measures mixed effect model) (300 mg, Week 28): −5.66
- subjects who died (incl. after discontinuation) (300 mg): 3 (7%) N (%) and 3 N (%)
- total number of deaths (300 mg): 2
- did not require tracheostomy and did not die (300 mg, through Week 28): 93%
- mean change from baseline in ALSFRS-R total score (300 mg, through Week 28): −6.2
- slope estimate of ALSFRS-R scores (linear mixed effects model) (300 mg, through Week 28): −1.021
- slope of ALSFRS-R total scores, zero imputed for first post-death visit (300 mg, through Week 28): −1.19
- slope of upright vital capacity (linear mixed effects, unadjusted) (300 mg, through Week 28): −3.067
- subjects with feeding tubes placed (300 mg, through Week 28): 6 (14%) N (%)
